Measured values as given in patent publication US20200129476A1, “PARP Inhibitor in Combination with a Glucocorticoid and/or Ascorbic Acid and/or a Protein Growth Factor for the Treatment of Impaired Wound Healing” (AKRIBES BIOMEDICAL GMBH, priority 2017, published 2020).

Columns and labels:
Format in all cases: cell-based, human
IL-1ß = IL-1ß secretion by HDF in the presence of wound exudate (ELISA); settings: FIG. 22; WE #43 and #78 used with veliparib
Method: Primary human dermal fibroblasts (HDF) were purchased from CELLnTEC, Bern. They were routinely grown in Dulbecco's modified Eagle's medium (DMEM) containing 10% FCS, 2 mM glutamine, and 100 U/ml penicillin/100 μg/ml streptomycin. Media, antibiotics, and glutamine were bought from Lonza. The cells were used at passage 5-15. Cells were trypsinized and seeded at 5000 cells/well in 200 μl into the inner wells of 96-well plates. The outer wells were loaded with sterile water. The cells were allowed to adhere overnight and then incubated for 72 hours at 37° C. under the following conditions: graded compound concentrations or 20 ng/ml PDGF-BB (Tonbo Biosciences) in the absence or presence of different dilutions of sterile-filtered WE in medium. For control samples, 200p1 medium was added instead of specific stimuli. Alternatively, the cells were seeded into 384-well plates at 2500 cells/well directly together with test compounds or growth factors and WE or medium in a total volume of […].
At the end of the 72-hour incubation period, supernatants were removed for the determination of IL-1ß, and the cells were fixed with 4% paraformaldehyde (Morphisto) for 15 minutes at room temperature and washed 3 times with PBS. A control plate was fixed after the overnight adherence of the cells (day 1) to determine the starting cell number.
IL-1ß levels were determined with a commercial ELISA kit. The amount of IL-1ß contained in the wound exudate added to the cells was subtracted from the total IL-ß in the supernatants in order to determine the cytokine secreted by the cells.

IL-1α = test: Fibroblast-macrophage coculture with wound exudate: IL-1α; settings: WE #78; veliparib 10 μM, talazoparib 0.1 μM
Method: CD14^+ monocytes, isolated from PBMC of healthy donors by magnetic bead separation were incubated either alone or in the presence of primary human dermal fibroblasts (CelINTec) or fibroblast-derived matrices (FDM). FDM had been generated from primary human dermal fibroblasts by a 3-week incubation with the growth supplements vitamin C or insulin and EGF (vitamin C: 2-phospho-L-ascorbic acid trisodium salt, 100 μg/ml; human EGF, 5 ng/ml; human insulin, 5 μg/ml). Alternatively, fibroblast monolayer cultures can be used as well. After 4 days to a week to allow for macrophage differentiation in the presence or absence of M-CSF (25 ng/ml), the cultures were stimulated overnight with graded concentrations of test compounds in the absence or presence of various dilutions of sterile-filtered WE. IFN-g (50 ng/ml), LPS (100 ng/ml) and IL-4 (25 ng/ml) or combinations thereof served as controls for M1 and M2 macrophage induction. For negative control samples, medium was added instead of specific stimuli. WE were added to the culture medium for overnight stimulation at dilutions ranging from 1:25 to 1:100.
Supernatants were harvested and frozen for cytokine determination by ELISA, and cells were harvested and subjected to FACS analysis, gating on the monocyte population. Geometric means or mean fluorescence intensities (MFI) were used to quantify surface marker expression. […]

macrophages = test: Fibroblast-macrophage coculture with wound exudate: live cells in FACS CD45-gate; settings: WE #78
Method: CD14^+ monocytes, isolated from PBMC of healthy donors by magnetic bead separation were incubated either alone or in the presence of primary human dermal fibroblasts (CelINTec) or fibroblast-derived matrices (FDM). FDM had been generated from primary human dermal fibroblasts by a 3-week incubation with the growth supplements vitamin C or insulin and EGF (vitamin C: 2-phospho-L-ascorbic acid trisodium salt, 100 μg/ml; human EGF, 5 ng/ml; human insulin, 5 μg/ml). Alternatively, fibroblast monolayer cultures can be used as well. […]
Supernatants were harvested and frozen for cytokine determination by ELISA, and cells were harvested and subjected to FACS analysis, gating on the monocyte population. Geometric means or mean fluorescence intensities (MFI) were used to quantify surface marker expression.
Cells were harvested and resuspended in FACS buffer (PBS containing 2% FCS). […] Co-staining with CD45 eFluor (#506 69-0459-42) was used to distinguish macrophages from primary human fibroblasts when analyzed from co-cultures. After washing cells with FACS buffer, they were fixed with 1% paraformaldehyde in PBS and stored at 4° C. in the dark until data were acquired on a Gallios flow cytometer from Beckman Coulter and analyzed with the Kaluza analysis software 1.3.

C[C@]1(c2nc3c(C(N)=O)cccc3[nH]2)CCCN1 [veliparib, 2-((2R)-2-methylpyrrolidin-2-yl)-1H-benzimidazole-4-carboxamide]
IL-1ß secretion induced by wound exudate (IL-1ß): reducing IL-1ß secretion | IL-1α induced by wound exudate (IL-1α): reduced | percentage of live cells in the FACS CD45-gate, veliparib with dexamethasone (macrophages; veliparib 10 μM + dexamethasone 10 nM): further increased | percentage of live cells in the FACS CD45-gate (macrophages; veliparib 10 μM or dexamethasone 10 nM alone): increased
